How the values were obtained:
[1] = Reaction of Compound 4 and various reactive oxygen species: peroxynitrite
Method: (§1) A 10 μmol/L solution of Compound 4 was prepared by diluting a 20 mmol/L solution of Compound 4 in DMF with a 100 mmol/L phosphate buffer (pH 7.4), and used for the test. The prepared solution was treated under the following conditions for 3 minutes (except for (f), for which treatment time was 30 minutes).
(a) Peroxynitrite was added to make a final concentration of 10 μmol/L.
(§2) After the reaction, change of fluorescence spectrum under each condition was measured to compare reactivities of the compound with (#2) peroxynitrite, (#3) hydrogen peroxide, (#4) singlet oxygen, (#5) hydroxyl radical, (#6) hypochlorite ion, and (#7) nitrogen monoxide.

[2] = Reaction of Compound 4 and various reactive oxygen species: nitrogen monoxide; settings: 10 μmol/L Compound 4, pH 7.4; NOC-13 100 μmol/L, 30 minutes
Method: as §1
(f) NOC-13 (nitrogen monoxide discharging agent, Dojindo Laboratory) was added to make a final concentration of 100 μmol/L.
as §2

[3] = Reaction of Compound 4 and various reactive oxygen species: hypochlorite ion; settings: 10 μmol/L Compound 4, pH 7.4; hypochlorite ions 10 μmol/L, 3 minutes
Method: as §1
(e) Hypochlorite ions were added to make a final concentration of 10 μmol/L.
as §2

[4] = Reaction of Compound 4 and various reactive oxygen species: hydroxyl radical; settings: 10 μmol/L Compound 4, pH 7.4; hydrogen peroxide 1 mmol/L and iron(II) sulfate 50 μmol/L, 3 minutes
Method: as §1
(d) Hydrogen peroxide and iron(II) sulfate were added to make final concentrations of 1 mmol/L and 50 μmol/L, respectively.
as §2

[5] = Reaction of Compound 4 and peroxynitrite (fluorescence spectrum); settings: 10 μmol/L Compound 4, 100 mmol/L phosphate buffer pH 7.4; peroxynitrite 1-50 μmol/L; after 60 seconds; excitation 505 nm
Method: A 10 μmol/L solution of Compound 4 was prepared by diluting a 20 mmol/L solution of Compound 4 in DMF with a 100 mmol/L phosphate buffer (pH 7.4). The solution was added with peroxynitrite solutions of 2 mmol/L, 5 mmol/L, 10 mmol/L, 20 mmol/L and 80 mmol/L at peroxynitrite final concentrations of 1, 2, 4, 5, 10, 20 or 50 μmol/L with stirring, and after 60 seconds, fluorescence spectrum was measured (excitation wavelength: 505 nm).

[6] = Reaction of Compound 4 and various reactive oxygen species: singlet oxygen; settings: 10 μmol/L Compound 4, pH 7.4; hydrogen peroxide 1 mmol/L and hypochlorite ions 100 μmol/L, 3 minutes
Method: as §1
(c) Hydrogen peroxide and hypochlorite ions were added to make final concentrations of 1 mmol/L and 100 μmol/L, respectively.
as §2

[7] = Reaction of Compound 4 and various reactive oxygen species: hydrogen peroxide; settings: 10 μmol/L Compound 4, pH 7.4; hydrogen peroxide 1 mmol/L, 3 minutes
Method: as §1
(b) Hydrogen peroxide was added to make a final concentration of 1 mmol/L.
as §2

HeLa cells = test: Imaging of peroxynitrite using Compound 4 in HeLa cells; type: cell-based; settings: HeLa cells loaded with 2 μmol/L Compound 4, 20 minutes; peroxynitrite 10 μmol/L; excitation 470 to 490 nm, emission 510 to 550 nm
Method: HeLa cells were precultured in Dulbecco's modified Eagle's medium (DMEM) supplemented with 10% (v/v) fetal bovine serum, penicillin (100 units/mL), and streptomycin (100 μg/mL) in a 5% CO2 incubator. These HeLa cells were inoculated on a 35 mm glass bottom dish (MatTek Corporation), and further cultured overnight in DMEM. After 24 hours, the medium was removed, and the HeLa cells were washed with Hank's balanced salt solution (HBSS, 2×1 mL). The HeLa cells were added with 2 mL of 2 μmol/L solution of Compound 4 in HBSS (containing 0.01% DMF and 0.01% Cremophor EL (SIGMA) as auxiliary solvents), and incubated at room temperature for 20 minutes. Then, the HeLa cells were washed with HBSS (2×1 mL). Fluorescence images before addition of peroxynitrite and after addition of peroxynitrite at a final concentration of 10 μmol/L were photographed at an excitation wavelength of 470 to 490 nm and fluorescence emission wavelength of 510 to 550 nm.
Among the photographs, (A) is a differential interference microscope image of HeLa cells loaded with Compound 4, (B) is a pseudo color fluorescence image of fluorescence intensity before addition of peroxynitrite, (C) is a pseudo color fluorescence image of fluorescence intensity after addition of peroxynitrite, and (D) is a fused image of (A) and (B).

Compound: CC1=C(C#N)C(C)=[N+]2C1=C(c1ccc(O)cc1OCC(=O)O)c1c(C)c(C#N)c(C)n1[B-]2(F)F [Compound 4, 2,6-dicyano-8-(4-hydroxy-2-carboxymethoxyphenyl)-1,3,5,7-tetramethyl-4,4-difluoro-4-bora-3a,4a-diaza-s-indacene]
- fluorescence after addition of peroxynitrite ([1]; 10 μmol/L Compound 4, pH 7.4, peroxynitrite 10 μmol/L, 3 minutes): emitted intense fluorescence
- selectivity to peroxynitrite over other reactive oxygen species ([1]; compared with hydrogen peroxide, singlet oxygen, hydroxyl radical, hypochlorite ion, nitrogen monoxide): high selectivity to peroxynitrite
- fluorescence after addition of nitrogen monoxide [2]: did not emit fluorescence at all
- fluorescence after addition of hypochlorite ion [3]: did not emit fluorescence at all
- fluorescence after addition of hydroxyl radical [4]: did not emit fluorescence at all
- change of fluorescence intensity on addition of peroxynitrite [5]: peroxynitrite addition amount-dependent increase in fluorescence intensity was observed
- fluorescence after addition of singlet oxygen [6]: did not emit fluorescence at all
- fluorescence after addition of hydrogen peroxide [7]: did not emit fluorescence at all
- fluorescence imaging of peroxynitrite in cells (HeLa cells): fluorescence imaging of peroxynitrite was performable

— patent publication US8178669B2, “Fluorescent probe for peroxynitrite” (The University of Tokyo, priority 2005, dated 2012)
